Test results taken from patent publication US12331302B2, “Fungal autoinducible expression system” (priority 2019, dated 2025).

B1: Bar1: α-factor degrading protease (protein, UniProt P12630 25-587, looked up)
Barrierpepsin: LTNDGTGHLEFLLQHEEEMYYATTLDIGTPSQSLTVLFDTGSADFWVMDSSNPFCLPNSNTSSYSNATYNGEEVKPSIDCRSMSTYNEHRSSTYQYLENGRFYITYADGTFADGSWGTETVSINGIDIPNIQFGVAKYATTPVSGVLGIGFPRRESVKGYEGAPNEYYPNFPQILKSEKIIDVVAYSLFLNSPDSGTGSIVFGAIDESKFSGDLFTFPMVNEYPTIVDAPATLAMTIQGLGAQNKSSCEHETFTTTKYPVLLDSGTSLLNAPKVIADKMASFVNASYSEEEGIYILDCPVSVGDVEYNFDFGDLQISVPLSSLILSPETEGSYCGFAVQPTNDSMVLGDVFLSSAYVVFDLDNYKISLAQANWNASEVSKKLVNIQTDGSISGAKIATAEPWSTNEPFTVTSDIYSSTGCKSRPFLQSSTASSLIAETNVQSRNCSTKMPGTRSTTVLSKPTQNSAMHQSTGAVTQTSNETKLELSSTMANSGSVSLPTSNSIDKEFEHSKSQTTSDPSVAEHSTFNQTFVHETKYRPTHKTVITETVTKYSTVLINVCKPTY

Key:
Type in all cases: cell-based, Saccharomyces cerevisiae
[1] = system: FUS1 promoter (pFUS1); test: mCherry expression under control of pFUS1, with or without α-factor; details: after 24 h, culture with addition of 5 μM α-factor
Method: (§1) Pre-cultures are prepared by inoculation of biological triplicates in CSM with appropriate amino acid drop out, and are grown for two days at 30° C., 250 rpm. Thereafter, they are inoculated to an OD of 0.05 in two duplicate tubes, whereof one is induced with 5 μM α-factor. Strains are grown at 30° C., 250 rpm for 24 h and samples are taken for flow cytometry after 0, 8 and 24 h. For characterization of strains with endogenous α-factor production, transformation plates and pre-culture media is supplemented with 5 μg/mL doxycycline. The pre-cultures are washed to remove Bar1 and doxycycline prior to inoculation. OD is measured at 600 nm and GFP and mCherry production is measured with a BD Accuri™ C6 flow cytometer from Becton, Dickinson and Company (Franklin Lakes, NJ, USA).
(§2) To test the initial system configuration, pFUS1-Cre and pTEF1-loxP-GFP-loxP-mCherry is transformed into strain JL275 (BY4741 MATa Δbar1 Δfar1). Precultures are grown for two days in CSM-ura-leu. Each replicate is used to inoculate two cultures, whereof one is induced with 5 μM α-factor. Fluorescence is measured after 0, 8 and 24 h. […] This indicated a high basal level expression from the FUS1 promoter, leading to leaky expression of Cre recombinase and early recombination. To investigate this hypothesis, mCherry is cloned under control of pFUS1 and mCherry expression is measured at 0 and 24 h. […]

[2] = system: Ste2 receptor / pFUS1J2-ubiM-Cre circuit in strain JL275; test: Strain characterization: GFP and mCherry production by flow cytometry after α-factor induction of the Cre/loxP circuit; details: JL275 with pFUS1J2-ubiM-Cre and pTEF1-loxP-GFP-loxP-mCherry
Method: as §1, §2

[3] = system: strains JL277-JL280; test: Autoinducible strains with endogenous α-factor production, fluorescence by TECAN plate reader; details: JL277-280 with pFUS1J2-ubiM-Cre pTDH3-rtTA pTETO3-BAR1 and pTEF1-loxP-GFP-loxP-mCherry; with or without 5 μM α-factor
Method: To establish autoinducible strains, the α-factor-expressing gene MFα1 under control of four different native promoters with different expression strengths (pTDH3, pPGK1, pYEF3 and pACT1) is integrated into locus p416d into the genome of JL275, resulting in strains JL277-JL280, respectively. The strains are transformed with plasmids pFUS1J2-ubiM-Cre pTDH3-rtTA pTETO3-BAR1 and pTEF1-loxP-GFP-loxP-mCherry, inoculated into CSM-ura-leu supplemented with 5 μg/mL doxycycline and pre-cultured for two days. The pre-cultures are washed and inoculated to an OD of 0.05, and grown with or without 5 μM α-factor to compare endogenous and external inducibility. The strain fluorescence is measured with a TECAN plate reader. […] The strain also continued to produce GFP unless α-factor is added. This experiment is to be repeated according to the previously established strain characterization protocol and measured with a flow cytometer.

[4] = system: pTETO3-BAR1 control module in strain JL275; test: Functionality of doxycycline-inducible BAR1 expression (supernatant/α-factor mix); details: supernatant mixed with 600 μM α-factor, 30° C., 4 h
Method: The functionality of Bar1 expression is investigated by transforming JL275 with pFUS1J2-ubiM-Cre pTDH3-rtTA pTETO3-BAR1 or control plasmid pFUS1-Cre. Both strains are inoculated in media with or without 5 μg/mL doxycycline, and are grown to stationary phase where after they are spun down. 0.5 mL supernatant is mixed with 0.5 mL 600 μM α-factor and incubated at 30° C. for 4 h. A corresponding amount of 5 μM α-factor (assuming no α-factor has been degraded) from each supernatant/α-factor incubation mix is used to induce cultures of JL275 with pFUS1J2-ubiM-Cre and pTEF1-loxP-GFP-loxP-mCherry (FIG. 4A). 0 and 5 μM α-factor are used as controls.

Molecule	mCherry expression from pFUS1 compared to the background strain autofluorescence [1]	System titratability (mCherry output) ([2]; 0, 0.1, 0.5, 1, 5 or 10 μM α-factor)	GFP to mCherry production shift ([2]; 5 μM α-factor, 0, 8 and 24 h)	mCherry production induction [3]	Degradation of α-factor by supernatant [4]
α-factor	approximately 20 fold	mCherry output correlating to the amount of α-factor added	clear shift from GFP to mCherry production	barely induced unless α-factor is added	
B1					functional and degrades α-factor
